Source: ChEMBL document CHEMBL6078711, “Design, synthesis, and biological evaluation of steroidal indole derivatives as membrane-targeting antibacterial candidates” (Eur J Med Chem, 2025)
Converted amounts (≈) assume the structure as drawn. The source made the active and inactive calls. The calls are words filed in the database; no cut-off is given here.

How the values were obtained:
[1] = test system: Staphylococcus aureus; assay: Antibacterial activity against Staphylococcus aureus CGMCC1.8721 assessed as reduction in bacterial growth; assay type: functional
[2] = test system: Staphylococcus aureus; assay: Antibacterial activity against methicillin-resistant Staphylococcus aureus ATCC 43300 assessed as reduction in bacterial growth; assay type: functional
[3] = test system: Staphylococcus aureus; assay: Antibacterial activity against methicillin-resistant Staphylococcus aureus CGMCC 1.12409 assessed as reduction in bacterial growth; assay type: functional
[4] = test system: Staphylococcus aureus; assay: Antibacterial activity against methicillin-resistant Staphylococcus aureus ATCC 33591 assessed as reduction in bacterial growth; assay type: functional
[5] = test system: Staphylococcus aureus; assay: Bactericidal activity against Staphylococcus aureus CGMCC1.8721 assessed as reduction in bacterial growth; assay type: functional
[6] = test system: A549; assay: Cytotoxicity against human A549 cells upto 20 uM; assay type: functional, cell-based
[7] = test system: HepG2; assay: Cytotoxicity against human HepG2 cells upto 20 uM; assay type: functional, cell-based
[8] = test system: HEK-293T; assay: Cytotoxicity against HEK293T cells upto 20 uM; assay type: toxicity, cell-based; conditions: human
[9] = Cytotoxicity against human HEK293T cells assessed as cell viability upto 40 uM relative to control; assay type: toxicity, cell-based, HEK-293T; conditions: read-out: Activity
[10] = test system: Staphylococcus aureus; assay: Antibacterial activity against Staphylococcus aureus CGMCC1.8721 assessed as reduction in bacterial growth at 4 to 8 times MIC measured at 0.5 hrs by time kill assay; assay type: functional; set-up: scale not given: the % may be the effect or the level left
[11] = test system: Staphylococcus aureus; assay: Drug resistance, ratio of MIC for Staphylococcus aureus CGMCC1.8721 after 30 days exposure to MIC for Staphylococcus aureus CGMCC1.8721 during first exposure; assay type: functional
[12] = test system: Staphylococcus aureus; assay: Antibacterial activity against Staphylococcus aureus CGMCC1.8721 assessed as reduction in bacterial growth in presence of K+; assay type: functional
[13] = test system: Staphylococcus aureus; assay: Antibacterial activity against Staphylococcus aureus CGMCC1.8721 assessed as reduction in bacterial growth in presence of Mg2+; assay type: functional
[14] = test system: Staphylococcus aureus; assay: Antibacterial activity against Staphylococcus aureus CGMCC1.8721 assessed as reduction in bacterial growth in presence of Zn2+; assay type: functional
[15] = test system: Staphylococcus aureus; assay: Antibacterial activity against Staphylococcus aureus CGMCC1.8721 assessed as reduction in bacterial growth in presence of Fe2+; assay type: functional
[16] = test system: Staphylococcus aureus; assay: Antibacterial activity against Staphylococcus aureus CGMCC1.8721 assessed as reduction in bacterial growth in presence of Fe3+; assay type: functional
[17] = test system: Staphylococcus aureus; assay: Antibacterial activity against methicillin-resistant Staphylococcus aureus ATCC 43300 assessed as reduction in bacterial growth in presence of Na+; assay type: functional
[18] = test system: Staphylococcus aureus; assay: Antibacterial activity against methicillin-resistant Staphylococcus aureus ATCC 43300 assessed as reduction in bacterial growth in presence of Ca2+; assay type: functional
[19] = test system: Staphylococcus aureus; assay: Antibacterial activity against methicillin-resistant Staphylococcus aureus ATCC 43300 assessed as reduction in bacterial growth in presence of Mg2+; assay type: functional
[20] = test system: Staphylococcus aureus; assay: Antibacterial activity against methicillin-resistant Staphylococcus aureus ATCC 43300 assessed as reduction in bacterial growth in presence of Zn2+; assay type: functional
[21] = test system: Staphylococcus aureus; assay: Antibacterial activity against methicillin-resistant Staphylococcus aureus ATCC 43300 assessed as reduction in bacterial growth in presence of Fe2+; assay type: functional
[22] = test system: Staphylococcus aureus; assay: Antibacterial activity against methicillin-resistant Staphylococcus aureus CGMCC 1.12409 assessed as reduction in bacterial growth in presence of K+; assay type: functional
[23] = test system: Staphylococcus aureus; assay: Antibacterial activity against methicillin-resistant Staphylococcus aureus CGMCC 1.12409 assessed as reduction in bacterial growth in presence of Ca2+; assay type: functional
[24] = test system: Staphylococcus aureus; assay: Antibacterial activity against methicillin-resistant Staphylococcus aureus CGMCC 1.12409 assessed as reduction in bacterial growth in presence of Mg2+; assay type: functional
[25] = test system: Staphylococcus aureus; assay: Antibacterial activity against methicillin-resistant Staphylococcus aureus CGMCC 1.12409 assessed as reduction in bacterial growth in presence of Zn2+; assay type: functional
[26] = test system: Staphylococcus aureus; assay: Antibacterial activity against methicillin-resistant Staphylococcus aureus CGMCC 1.12409 assessed as reduction in bacterial growth in presence of Fe2+; assay type: functional
[27] = test system: Staphylococcus aureus; assay: Antibacterial activity against methicillin-resistant Staphylococcus aureus ATCC 33591 assessed as reduction in bacterial growth in presence of Na+; assay type: functional
[28] = test system: Staphylococcus aureus; assay: Antibacterial activity against methicillin-resistant Staphylococcus aureus ATCC 33591 assessed as reduction in bacterial growth in presence of K+; assay type: functional
[29] = test system: Staphylococcus aureus; assay: Antibacterial activity against methicillin-resistant Staphylococcus aureus ATCC 33591 assessed as reduction in bacterial growth in presence of Ca2+; assay type: functional
[30] = test system: Staphylococcus aureus; assay: Antibacterial activity against methicillin-resistant Staphylococcus aureus ATCC 33591 assessed as reduction in bacterial growth in presence of Mg2+; assay type: functional
[31] = test system: Staphylococcus aureus; assay: Antibacterial activity against methicillin-resistant Staphylococcus aureus ATCC 33591 assessed as reduction in bacterial growth in presence of Zn2+; assay type: functional
[32] = test system: Staphylococcus aureus; assay: Antibacterial activity against methicillin-resistant Staphylococcus aureus ATCC 33591 assessed as reduction in bacterial growth in presence of Fe2+; assay type: functional
[33] = test system: Staphylococcus aureus; assay: Antibiofilm activity against Staphylococcus aureus CGMCC1.8721 assessed as inhibition of biofilm formation; assay type: functional, organism-based
[34] = test system: Staphylococcus aureus; assay: Antibiofilm activity against Staphylococcus aureus CGMCC1.8721 assessed as inhibition of biofilm formation at 1 times MIC; assay type: functional
[35] = test system: Cell membrane; assay: Induction of inner membrane permeabilization in Staphylococcus aureus CGMCC1.8721 assessed as increase in fluorescence intensity by PI staining based fluorescence analysis; assay type: subcellular
[36] = test system: Cell membrane; assay: Disruption of cell membrane integrity in Staphylococcus aureus CGMCC1.8721 assessed as increase in protein leakage at 4 times MIC; assay type: subcellular
[37] = test system: Staphylococcus aureus; assay: Antibacterial activity against Staphylococcus aureus CGMCC1.8721 assessed as induction of ROS production at 1 to 4 times MIC by DCFH-DA staining based flow cytometry analysis; assay type: functional, organism-based
[38] = test system: Staphylococcus aureus; assay: Antibacterial activity against Staphylococcus aureus CGMCC1.8721 assessed as reduction in metabolic activity at 1 to 4 times MIC by Alamar Blue assay; assay type: functional, organism-based
[39] = test system: Staphylococcus aureus; assay: Antibacterial activity against Staphylococcus aureus CGMCC1.8721 assessed as reduction in metabolic activity at 4 times MIC by Alamar Blue assay; assay type: functional; set-up: scale not given: the % may be the effect or the level left
[40] = test system: Staphylococcus aureus; assay: Antibacterial activity against Staphylococcus aureus CGMCC1.8721 assessed as reduction in bacterial growth in presence of phosphatidylglycerol; assay type: functional
[41] = test system: Staphylococcus aureus; assay: Antibacterial activity against Staphylococcus aureus CGMCC1.8721 assessed as reduction in bacterial growth in presence of lipoteichoic acid; assay type: functional, organism-based
[42] = test system: Cell membrane; assay: Disruption of cell membrane integrity in Staphylococcus aureus CGMCC1.8721 assessed as increase in red fluorescence at 4 times MIC by SYTO 9/PI staining based confocal microscopic analysis; assay type: subcellular
[43] = test system: Cell membrane; assay: Disruption of cell membrane integrity in Staphylococcus aureus CGMCC1.8721 assessed as appearance of wrinkled cell surface at 1 to 4 times MIC by scanning electron microscopic analysis; assay type: subcellular
[44] = test system: Staphylococcus aureus; assay: Antibacterial activity against Methicillin-resistant Staphylococcus aureus CGMCC1.8721 infected in mouse skin infection model assessed as reduction in bacterial load at 5 mg/kg, sc; assay type: functional; set-up: scale not given: the % may be the effect or the level left
[45] = test system: Staphylococcus aureus; assay: Antibacterial activity against Methicillin-resistant Staphylococcus aureus CGMCC1.8721 infected in mouse skin infection model assessed as reduction in bacterial load at 10 mg/kg, sc; assay type: functional; set-up: scale not given: the % may be the effect or the level left

CCNCc1ccc2[nH]cc(C[C@@H](C)[C@H]3CC[C@H]4[C@@H]5CC[C@@H]6C[C@H](O)CC[C@]6(C)[C@H]5CC[C@]34C)c2c1
MIC [1]: 1 µg/mL (≈ 2.04 µM) | MIC [2]: 1 µg/mL (≈ 2.04 µM) | MIC [3]: 2 µg/mL (≈ 4.08 µM) | MIC [4]: 2 µg/mL (≈ 4.08 µM) | MBC [5]: 2 µg/mL (≈ 4.08 µM) | Activity [6]: Active | Activity [7]: Active | Activity [8]: Non-toxic | viability at up to 40 µM [9]: > 70% | Activity [10]: 100% | Ratio [11]: 64 | MIC [12]: 1 µg/mL | MIC [13]: 1 µg/mL | MIC [14]: 1 µg/mL | MIC [15]: 1 µg/mL | MIC [16]: 1 µg/mL | MIC [17]: 1 µg/mL | MIC [18]: 1 µg/mL | MIC [19]: 1 µg/mL | MIC [20]: 1 µg/mL | MIC [21]: 1 µg/mL | MIC [22]: 2 µg/mL | MIC [23]: 2 µg/mL | MIC [24]: 2 µg/mL | MIC [25]: 2 µg/mL | MIC [26]: 2 µg/mL | MIC [27]: 2 µg/mL | MIC [28]: 2 µg/mL | MIC [29]: 2 µg/mL | MIC [30]: 2 µg/mL | MIC [31]: 2 µg/mL | MIC [32]: 2 µg/mL | Activity [33]: Dose-dependent-effect | inhibition (INH) [34]: 64.1% | Activity [35]: Dose-dependent-effect | Activity [36]: Active | Activity [37]: Active | Activity [38]: Active | Activity [39]: 75% | MIC [40]: 32 µg/mL | Activity [41]: inactive | Activity [42]: Active | Activity [43]: Active | Activity [44]: 67% | Activity [45]: 76%
